From patent US20250352675A1, “CA-IX TARGETING FLUORESCENT PROBES” (BRACCO IMAGING S.P.A., priority 2022, published 2025)

Legend:
[1] = Optical characterization (excitation/emission maxima, molar extinction coefficient); assay type: physicochemical; conditions: in water
[2] = target: T1, CA-IX (Homo sapiens, UniProt Q16790); assay: Cellular binding assessment by flow cytometry on CA-IX expressing HT-29 cells; conditions: 1 hour 30 min on ice, read-out: CA-IX receptor affinity (KD, to HT-29 cells)
T1 construct: host or cells: HT-29 human colorectal adenocarcinoma cells
Description: Human colon adenocarcinoma HT-29 cells (ATCC) used for the cellular binding experiments were cultured in McCoy's 5A medium (Sigma-Aldrich), supplemented with 10% HyClone Fetal Clone III (Euroclone), 2 mM L-glutamine (Sigma-Aldrich), 100 IU/mL penicillin, 0.1 mg/mL streptomycin, 0.25 μg/mL amphotericin B (Antibiotic-Antimycotic solution, Life Technologies) and cells were grown at 37° C. in humidified atmosphere enriched with 5% CO2. DPBS without MgCl2 and CaCl2 (Sigma-Aldrich) was used for cell rinsing.
Indeed, by using the anti-human CA-IX antibody MAB2188 (R&D Systems) and the DAKO […], according to the instruction of the datasheet, HT-29 cells were estimated to express about 150,000 CA-IX molecules per cell. Thus, HT-29 cells were used to measure the binding of all compounds to CA-IX, expressed in its physiological environment at the cell-surface. Briefly, HT-29 cells were detached with StemPro® Accutase® Cell Dissociation Reagent (Life Technologies), collected in DPBS and counted. At least 2·10^5 cells were placed in 1.5 mL tubes on ice and resuspended in 50-100 μL of cold FACS buffer (eBioscience™ Flow Cytometry Staining Buffer, Invitrogen) containing scalar concentrations of compounds (compound 1: range 1-5 μM; compounds 2 and 3: range 0-20 μM). After incubation (1 hour and 30 min on ice in the dark), cells were rinsed 3 times in 300 μL of cold FACS buffer by centrifugation (5 min, 4° C., 350 RCF), discarding the supernatant. Cell pellets were then resuspended in 200 μL of cold FACS buffer (or in a suitable volume in order to obtain no more than 1000 recorded events per μL during FACS analysis) and analyzed with the flow cytometer Accuri™ C6 (BD Biosciences). The mean cell-associated fluorescence was plotted against concentration and the dissociation constant at equilibrium (Ko) was inferred by mathematical fitting with GraphPad Prism v.9 software, according to the following equation: […]
where Bmax is the maximum specific binding in the same units as Y. KD is the equilibrium dissociation constant, in the same units as X. NS is the slope of nonspecific binding in Y units divided by X units. Background is the amount of nonspecific binding with no added Compound.
All compounds were analyzed in at least three independent experiments. The calculated KD are summarized in Table III and compared with the one obtained for HF-1.

[3] = test system: HT-29 cells; assay: Time-dependent cell uptake / internalization in HT-29 cells by flow cytometry; assay type: cell-based, human; conditions: 1 μM; for Slope of cell-associated fluorescence increase / total cell-associated fluorescence over time: 37° C.; for Slope of cell-associated fluorescence increase: 1-6 hours; for total cell-associated fluorescence over time: 1 to 6 hours; for % internalization (mean ± std. dev.): after 2 hours at 37° C.
Description: The HT-29 cells were used as in vitro model to assess the cell uptake of the CA-IX targeting compounds of the invention, more specifically whether cellular internalization of compounds occurred after targeting to cell-surface-expressed CA-IX. Cellular uptake was evaluated by flow cytometry. […] Treatment with unconjugated dyes were used to estimate non-specific CA-IX-independent cellular uptake. Cell incubation on ice was used to discriminate the cell-associated fluorescence deriving from internalized and cell-surface associated compounds (37° C.), from the one deriving from solely cell surface-bound compounds (on ice). Treatment of HT-29 cells, grown in 24-well plates, was performed by rinsing cells in DPBS and then by incubation with treatment solutions, for the indicated times and temperatures, in the dark. At the end of treatment, cells were rinsed 3 times with cold DPBS, and detached from the plate with StemPro® Accutase® Cell Dissociation Reagent, collected in 1.5 mL tubes after dilution in DPBS and centrifuged (5 minutes, 350 RCF, 4° C.). The supernatant was then discarded, and the cell pellet was resuspended in 300 μL of cold FACS buffer, or in a suitable volume in order to obtain no more than 1,000 recorded events per μL during FACS analysis. Samples were analyzed with the flow cytometer Accuri™ C6 (BD Biosciences) using the 640 nm excitation laser and the emission 780/60 nm filter. At least 15000 valid events were collected for each sample. At the end of analysis, each sample was plotted in histograms, being X the fluorescence intensity (FL4-A) in log scale and Y the counts. Usually, a gaussian distribution of the cell population was observed. The data retrieved were the mean fluorescence of each population, considered the fluorescence intensity value of the corresponding sample. Independent replicates were performed for each experimental condition. Normalized cell-associated fluorescence was calculated with the following formula: […]
To evaluate the time dependent uptake, the experiments were conducted from 1 to 6 hours of cell treatment with a compound concentration of 1 μM, both on ice (internalization blocked) and at 37° C. (internalization-permissive temperature) in order to differentiate cell-associated fluorescence deriving from internalized compounds from that due to cell surface-associated one. The cell surface-associated fluorescence remained roughly constant over time while the binding of the corresponding unconjugated dyes was undetectable. […] The internalization potential was calculated as percentage of internalized compounds after 2 hours of cell treatment (arbitrarily chosen) at 37° C.

SMILES	molar extinction coefficient (ε) [1] [M⁻¹ cm⁻¹]	Kd [2] [nM]	Slope of cell-associated fluorescence increase [3]	total cell-associated fluorescence over time [3]	% internalization (mean ± std. dev.) [3] [%]
CC1(C)C(/C=C/C2=C(Oc3ccc(S(=O)(=O)O)cc3)C(=C/C=C3/N(CCCCS(=O)(=O)O)c4ccc(S(=O)(=O)O)cc4C3(C)C)/CCC2)=[N+](CCCCS(=O)(=O)[O-])c2ccc(C(=O)NCCCCCCCC(=O)Nc3nnc(S(N)(=O)=O)s3)cc21 [Compound 3]	240000	62 ± 4	2.7	increased over time	49.2 ± 3.9
CC1(C)C(/C=C/C=C/C=C/C=C2/N(CCCCS(=O)(=O)O)c3ccc(C(=O)NC[C@H](O)[C@@H](O)[C@H](O)[C@H](O)CO)cc3C2(C)C)=[N+](CCCCS(=O)(=O)[O-])c2ccc(C(=O)NCCCCCCCC(=O)Nc3nnc(S(N)(=O)=O)s3)cc21 [Compound 1]	240000	68 ± 4	1.0	increased over time	22.8 ± 8.2
CC1(C)C(/C=C/C=C/C=C/C=C2/N(CCCCS(=O)(=O)O)c3ccc(S(=O)(=O)O)cc3C2(C)C)=[N+](CCCCS(=O)(=O)[O-])c2ccc(C(=O)NCCCCCCCC(=O)Nc3nnc(S(N)(=O)=O)s3)cc21 [Compound 2]	260000	54 ± 3	1.9	increased over time	40.8 ± 9.9
